From US11420958B2, “Aryl and heteroaryl substituted indole compounds” (BRISTOL-MYERS SQUIBB COMPANY, priority 2017, dated 2022)

How the values were obtained:
Type in all cases: cell-based
human TLR7 = human TLR7 (Homo sapiens (Human), UniProt Q9NYK1); assay: TLR7 inhibition reporter assay (HEK-Blue, SEAP); conditions: HEK-Blue cells overexpressing human TLR7, gardiquimod 7.5 μM stimulation
Summary of the method: (§1)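 HEK-Blue cells overexpressing the receptor carry a SEAP reporter under IFN-β minimal promoter with NF-κB/AP-1 sites. Compounds (0.05 nM–50 μM final) were preincubated 30 min at room temperature, then cells were stimulated with gardiquimod 7.5 μM (TLR7), R848 15.9 μM (TLR8) or ODN2006 5 nM (TLR9) for 22 h at 37 °C.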

human TLR9 = human TLR9 (Homo sapiens (Human), UniProt Q9NR96); assay: TLR9 inhibition reporter assay (HEK-Blue, SEAP); conditions: HEK-Blue cells overexpressing human TLR9, ODN2006 5 nM stimulation
Summary of the method: as §1

human TLR8 = human TLR8 (Homo sapiens (Human), UniProt Q9NR97); assay: TLR8 inhibition reporter assay (HEK-Blue, SEAP); conditions: HEK-Blue cells overexpressing human TLR8, R848 15.9 μM stimulation
Summary of the method: as §1

Sequence of human TLR9 (Q9NR96 26-1032): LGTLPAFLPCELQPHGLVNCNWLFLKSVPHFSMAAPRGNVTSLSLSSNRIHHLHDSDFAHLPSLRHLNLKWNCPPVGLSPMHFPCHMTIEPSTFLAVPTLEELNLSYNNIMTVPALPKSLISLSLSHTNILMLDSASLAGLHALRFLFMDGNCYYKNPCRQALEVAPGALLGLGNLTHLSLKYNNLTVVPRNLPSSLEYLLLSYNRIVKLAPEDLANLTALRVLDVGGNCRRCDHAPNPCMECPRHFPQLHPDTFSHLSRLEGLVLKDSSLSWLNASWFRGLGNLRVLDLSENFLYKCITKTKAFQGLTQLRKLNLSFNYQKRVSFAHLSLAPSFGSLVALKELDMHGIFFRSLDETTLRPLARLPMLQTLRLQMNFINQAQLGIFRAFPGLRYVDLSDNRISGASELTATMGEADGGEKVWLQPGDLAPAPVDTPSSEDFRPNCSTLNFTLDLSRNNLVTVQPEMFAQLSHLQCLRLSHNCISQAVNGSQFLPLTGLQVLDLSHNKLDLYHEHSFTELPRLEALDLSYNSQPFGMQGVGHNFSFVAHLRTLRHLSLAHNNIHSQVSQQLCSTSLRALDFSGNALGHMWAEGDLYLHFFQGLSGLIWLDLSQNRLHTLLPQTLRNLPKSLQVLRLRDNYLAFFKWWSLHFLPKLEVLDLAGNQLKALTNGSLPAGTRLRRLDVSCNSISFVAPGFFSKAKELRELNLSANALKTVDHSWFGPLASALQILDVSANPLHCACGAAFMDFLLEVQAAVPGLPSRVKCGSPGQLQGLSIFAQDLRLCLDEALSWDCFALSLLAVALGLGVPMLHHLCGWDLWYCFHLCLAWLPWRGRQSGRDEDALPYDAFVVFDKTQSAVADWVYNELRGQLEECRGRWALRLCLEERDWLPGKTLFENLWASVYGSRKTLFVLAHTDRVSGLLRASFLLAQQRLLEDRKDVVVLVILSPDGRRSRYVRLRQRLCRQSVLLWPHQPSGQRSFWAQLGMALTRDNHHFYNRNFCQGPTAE
Sequence of human TLR7 (Q9NYK1 27-1049): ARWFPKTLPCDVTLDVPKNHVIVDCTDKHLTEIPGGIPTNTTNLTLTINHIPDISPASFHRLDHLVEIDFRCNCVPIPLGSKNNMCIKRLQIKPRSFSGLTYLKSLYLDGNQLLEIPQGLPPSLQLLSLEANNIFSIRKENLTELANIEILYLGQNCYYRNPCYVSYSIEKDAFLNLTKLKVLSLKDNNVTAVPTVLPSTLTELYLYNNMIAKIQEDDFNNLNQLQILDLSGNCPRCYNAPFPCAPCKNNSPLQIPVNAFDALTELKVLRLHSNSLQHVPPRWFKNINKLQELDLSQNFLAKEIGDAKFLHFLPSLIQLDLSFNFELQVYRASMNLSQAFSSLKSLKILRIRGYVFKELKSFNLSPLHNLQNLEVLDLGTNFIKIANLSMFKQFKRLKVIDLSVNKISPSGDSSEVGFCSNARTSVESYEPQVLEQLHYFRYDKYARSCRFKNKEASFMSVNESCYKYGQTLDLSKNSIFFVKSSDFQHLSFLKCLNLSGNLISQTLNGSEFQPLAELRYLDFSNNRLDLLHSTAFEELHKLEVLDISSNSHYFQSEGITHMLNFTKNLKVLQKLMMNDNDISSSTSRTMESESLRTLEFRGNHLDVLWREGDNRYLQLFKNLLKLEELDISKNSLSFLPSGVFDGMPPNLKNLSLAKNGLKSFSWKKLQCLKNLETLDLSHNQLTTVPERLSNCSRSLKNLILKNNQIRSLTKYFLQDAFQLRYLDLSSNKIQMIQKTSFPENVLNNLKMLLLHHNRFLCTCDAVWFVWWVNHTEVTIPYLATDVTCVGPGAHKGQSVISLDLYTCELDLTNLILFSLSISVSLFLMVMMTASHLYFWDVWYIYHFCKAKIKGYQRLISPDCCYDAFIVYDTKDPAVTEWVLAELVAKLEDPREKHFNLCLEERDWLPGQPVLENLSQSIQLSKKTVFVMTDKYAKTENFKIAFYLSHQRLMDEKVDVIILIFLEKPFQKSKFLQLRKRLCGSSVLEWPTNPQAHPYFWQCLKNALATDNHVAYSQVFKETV
Sequence of human TLR8 (Q9NR97 27-1041): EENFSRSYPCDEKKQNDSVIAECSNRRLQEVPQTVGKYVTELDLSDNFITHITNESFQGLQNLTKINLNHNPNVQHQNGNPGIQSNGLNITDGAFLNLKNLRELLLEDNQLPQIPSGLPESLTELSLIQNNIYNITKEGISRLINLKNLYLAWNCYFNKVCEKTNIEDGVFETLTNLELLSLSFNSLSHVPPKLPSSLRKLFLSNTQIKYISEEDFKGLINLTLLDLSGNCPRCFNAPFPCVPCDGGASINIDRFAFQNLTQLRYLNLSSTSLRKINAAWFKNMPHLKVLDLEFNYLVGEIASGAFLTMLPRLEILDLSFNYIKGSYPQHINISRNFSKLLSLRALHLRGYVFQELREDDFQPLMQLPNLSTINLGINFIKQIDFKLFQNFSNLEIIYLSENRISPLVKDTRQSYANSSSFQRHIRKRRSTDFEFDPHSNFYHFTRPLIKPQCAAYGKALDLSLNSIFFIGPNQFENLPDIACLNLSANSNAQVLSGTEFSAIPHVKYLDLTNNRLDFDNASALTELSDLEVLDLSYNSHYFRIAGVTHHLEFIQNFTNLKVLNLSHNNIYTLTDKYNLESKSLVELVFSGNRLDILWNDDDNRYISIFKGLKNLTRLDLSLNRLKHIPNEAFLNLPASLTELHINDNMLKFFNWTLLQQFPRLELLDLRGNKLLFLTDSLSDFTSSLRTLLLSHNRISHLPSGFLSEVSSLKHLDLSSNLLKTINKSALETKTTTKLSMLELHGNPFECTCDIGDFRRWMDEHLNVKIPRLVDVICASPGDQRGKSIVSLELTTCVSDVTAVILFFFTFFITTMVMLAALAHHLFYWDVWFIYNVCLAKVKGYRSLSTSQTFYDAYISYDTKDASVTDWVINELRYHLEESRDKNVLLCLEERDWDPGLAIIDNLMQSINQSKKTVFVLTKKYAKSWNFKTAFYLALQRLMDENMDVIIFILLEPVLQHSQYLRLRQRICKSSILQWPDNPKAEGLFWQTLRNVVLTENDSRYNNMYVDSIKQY

| Compound | IC50 (human TLR7) | IC50 (human TLR9) | IC50 (human TLR8) |
| --- | --- | --- | --- |
| COc1ccc(-c2[nH]c3ccc(-c4ccc(N5CCN(C(C)C)CC5)nc4)cc3c2C(C)C)cc1OC [Example 393, 2-(3,4-dimethoxyphenyl)-3-isopropyl-5-(6-(4-isopropylpiperazin-1-yl)pyridin-3-yl)-1H-indole] | 0.06 µM | 0.666 µM | 0.011 µM |
| CC(C)c1c(-c2ccnc3[nH]ncc23)[nH]c2ccc(-c3ccc4[nH]c(=O)cc(O)c4c3)cc12 [Example 394, 4-hydroxy-6-(3-isopropyl-2-(1H-pyrazolo[3,4-b]pyridin-4-yl)-1H-indol-5-yl)quinolin-2(1H)-one] | 0.919 µM | > 50 µM | 0.218 µM |
| COc1ccc(-c2[nH]c3ccc(-c4cccc(-c5cccc(CN6CCOCC6)c5)c4)cc3c2C(C)C)cc1OC [Example 396, 4-((3′-(2-(3,4-dimethoxyphenyl)-3-isopropyl-1H-indol-5-yl)-[1,1′-biphenyl]-3-yl)methyl)morpholine] | 2.31 µM | > 50 µM | 0.519 µM |
| COc1ccc(-c2[nH]c3ccc(-c4cccc(-c5cccc(CN(C)C)c5)c4)cc3c2C(C)C)cc1OC [Example 397, 1-(3′-(2-(3,4-dimethoxyphenyl)-3-isopropyl-1H-indol-5-yl)-[1,1′-biphenyl]-3-yl)-N,N-dimethylmethanamine] | 3.3 µM | 4.12 µM | 0.101 µM |
| CCc1c(-c2ccc(OC)c(OC)c2)[nH]c2ccc(-c3ccc(N4CCNCC4)cc3)cc12 [Example 399, 2-(3,4-dimethoxyphenyl)-3-ethyl-5-(4-(piperazin-1-yl)phenyl)-1H-indole] | 0.947 µM | 0.721 µM | 0.028 µM |
| COc1ccc(-c2[nH]c3ccc(-c4ccc(NCCCN(C)C)cc4)cc3c2C(C)C)cc1OC [Example 400, N1-(4-(2-(3,4-dimethoxyphenyl)-3-isopropyl-1H-indol-5-yl)phenyl)-N3,N3-dimethylpropane-1,3-diamine] | 0.165 µM | 2.66 µM | 0.035 µM |
| COc1ccc(-c2[nH]c3ccc(-c4ccc(NCCN5CCOCC5)cc4)cc3c2C(C)C)cc1OC [Example 401, 4-(2-(3,4-dimethoxyphenyl)-3-isopropyl-1H-indol-5-yl)-N-(2-morpholinoethyl)aniline] | 0.541 µM | 43.3 µM | 0.077 µM |
| COc1ccc(-c2[nH]c3ccc(-c4ccc(NC5CCCNC5)cc4)cc3c2C(C)C)cc1OC (stereo not drawn) [Example 402, N-(4-(2-(3,4-dimethoxyphenyl)-3-isopropyl-1H-indol-5-yl)phenyl)piperidin-3-amine] | 0.2 µM | 2.32 µM | 0.021 µM |
| COc1ccc(-c2[nH]c3ccc(-c4ccc(N5CCC(c6ccncc6)CC5)cc4)cc3c2C(C)C)cc1OC [Example 405, 2-(3,4-dimethoxyphenyl)-3-isopropyl-5-(4-(4-(pyridin-4-yl)piperidin-1-yl)phenyl)-1H-indole] | 1.56 µM | > 50 µM | 0.464 µM |
| COc1ccc(-c2[nH]c3ccc(-c4ccc(C5=CCNCC5)cc4)cc3c2C)cc1OC [Example 408, 2-(3,4-dimethoxyphenyl)-3-methyl-5-(4-(1,2,3,6-tetrahydropyridin-4-yl)phenyl)-1H-indole] | 8.62 µM | 0.729 µM | > 50 µM |
| COc1ccc(-c2[nH]c3ccc(-c4cccc(N5CCNCC5)c4)cc3c2C(C)C)cc1OC [Example 411, 2-(3,4-dimethoxyphenyl)-3-isopropyl-5-(3-(piperazin-1-yl)phenyl)-1H-indole] | 0.604 µM | 8.43 µM | 0.096 µM |
| COc1ccc(-c2[nH]c3ccc(-c4ccc(CN5CCOCC5)cc4)cc3c2C(C)C)cc1OC [Example 413, 4-(4-(2-(3,4-dimethoxyphenyl)-3-isopropyl-1H-indol-5-yl)benzyl)morpholine] | 0.44 µM | > 50 µM | 0.038 µM |
| CC(C)c1c(-c2ccnc3[nH]ncc23)[nH]c2ccc(-c3cccc(CO)c3)cc12 [Example 414, (3-(3-isopropyl-2-(1H-pyrazolo[3,4-b]pyridin-4-yl)-1H-indol-5-yl)phenyl)methanol] | 0.771 µM | > 50 µM | 0.063 µM |
| CC(C)c1c(-c2ccnc3[nH]ncc23)[nH]c2ccc(-c3cccc(S(N)(=O)=O)c3)cc12 [Example 415, 3-(3-isopropyl-2-(1H-pyrazolo[3,4-b]pyridin-4-yl)-1H-indol-5-yl)benzenesulfonamide] | 0.82 µM | > 50 µM | 0.056 µM |
| COc1ccc(-c2[nH]c3ccc(-c4ccc(N5CCOCC5)nc4)cc3c2C(C)C)cc1OC [Example 416, 4-(5-(2-(3,4-dimethoxyphenyl)-3-isopropyl-1H-indol-5-yl)pyridin-2-yl)morpholine] | 2.29 µM | > 50 µM | 0.071 µM |
| COc1ccc(-c2[nH]c3ccc(-c4ccc(N5CCNCC5)nc4)cc3c2C(C)C)cc1OC [Example 417, 2-(3,4-dimethoxyphenyl)-3-isopropyl-5-(6-(piperazin-1-yl)pyridin-3-yl)-1H-indole] | 0.049 µM | 1.22 µM | 0.0068 µM |
| COc1ccc(-c2[nH]c3ccc(-c4cnc(N5CCN(CC(C)C)CC5)cc4C)cc3c2C(C)C)cc1OC [Example 418, 2-(3,4-dimethoxyphenyl)-5-(6-(4-isobutylpiperazin-1-yl)-4-methylpyridin-3-yl)-3-isopropyl-1H-indole] | 0.879 µM | 3.54 µM | 0.041 µM |
| COc1ccc(-c2[nH]c3ccc(-c4cnc(N5CCNCC5)cc4C)cc3c2C(C)C)cc1OC [Example 419, 2-(3,4-dimethoxyphenyl)-3-isopropyl-5-(4-methyl-6-(piperazin-1-yl)pyridin-3-yl)-1H-indole] | 0.05 µM | 1.39 µM | 0.014 µM |

The remaining compounds from weak to strong by IC50 (human TLR7), led by results:

| IC50 (human TLR7) | IC50 (human TLR9) | IC50 (human TLR8) | Compound |
| --- | --- | --- | --- |
| 2.61 µM | > 50 µM | 2.22 µM | COc1ccc(-c2[nH]c3ccc(-c4ccc(-c5cccnc5)cc4)cc3c2C(C)C)cc1OC [Example 406, 2-(3,4-dimethoxyphenyl)-3-isopropyl-5-(4-(pyridin-3-yl)phenyl)-1H-indole] |
| 1.28 µM | > 50 µM | 0.429 µM | COc1ccc(-c2[nH]c3ccc(-c4cccc(-c5ccc6nonc6c5)c4)cc3c2C(C)C)cc1OC [Example 409, 5-(3-(2-(3,4-dimethoxyphenyl)-3-isopropyl-1H-indol-5-yl)phenyl)benzo[c][1,2,5]oxadiazole] |
| 0.96 µM | 2.53 µM | 0.056 µM | COc1ccc(-c2[nH]c3ccc(-c4ccnc(N5CCN(C6CCC6)CC5)c4)cc3c2C(C)C)cc1OC [Example 427, 5-(2-(4-cyclobutylpiperazin-1-yl)pyridin-4-yl)-2-(3,4-dimethoxyphenyl)-3-isopropyl-1H-indole] |
| 0.838 µM | 1.45 µM | 0.056 µM | COc1ccc(-c2[nH]c3ccc(-c4ccnc(N5CCN(C6CCCC6)CC5)c4)cc3c2C(C)C)cc1OC [Example 426, 5-(2-(4-cyclopentylpiperazin-1-yl)pyridin-4-yl)-2-(3,4-dimethoxyphenyl)-3-isopropyl-1H-indole] |
| 0.57 µM | > 50 µM | 0.312 µM | COc1ccc(-c2[nH]c3ccc(-c4ccc(N5CCN(C6CCCC6)CC5)cc4)cc3c2C(C)C)cc1OC [Example 403, 5-(4-(4-cyclopentylpiperazin-1-yl)phenyl)-2-(3,4-dimethoxyphenyl)-3-isopropyl-1H-indole] |
| 0.559 µM | 2.55 µM | 2.12 µM | COc1ccc(-c2[nH]c3ccc(-c4ccc(CCCN5CCOCC5)cc4)cc3c2C(C)C)cc1OC [Example 398, 4-(3-(4-(2-(3,4-dimethoxyphenyl)-3-isopropyl-1H-indol-5-yl)phenyl)propyl)morpholine] |
| 0.486 µM | 44 µM | 0.111 µM | CC(C)c1c(-c2ccnc3[nH]ncc23)[nH]c2ccc(-c3ccc4c(cnn4C)c3)cc12 [Example 395, 4-(3-isopropyl-5-(1-methyl-1H-indazol-5-yl)-1H-indol-2-yl)-1H-pyrazolo[3,4-b]pyridine] |
| 0.334 µM | 0.693 µM | 0.0047 µM | COc1ccc(-c2[nH]c3ccc(-c4cnc(N5CCN(C(C)C)CC5)cc4C)cc3c2C(C)C)cc1OC [Example 420, 2-(3,4-dimethoxyphenyl)-3-isopropyl-5-(6-(4-isopropylpiperazin-1-yl)-4-methylpyridin-3-yl)-1H-indole] |
| 0.274 µM | 4.91 µM | 0.055 µM | COc1ccc(-c2[nH]c3ccc(-c4ccc(OC5CCNCC5)cc4)cc3c2C(C)C)cc1OC [Example 410, 2-(3,4-dimethoxyphenyl)-3-isopropyl-5-(4-(piperidin-4-yloxy)phenyl)-1H-indole] |
| 0.246 µM | 9.68 µM | 0.038 µM | CNCCNc1ccc(-c2ccc3[nH]c(-c4ccc(OC)c(OC)c4)c(C(C)C)c3c2)cc1 [Example 404, N1-(4-(2-(3,4-dimethoxyphenyl)-3-isopropyl-1H-indol-5-yl)phenyl)-N2-methylethane-1,2-diamine] |
| 0.063 µM | 2.75 µM | 0.012 µM | COc1ccc(-c2[nH]c3ccc(-c4ccc(OCCCN(C)C)nc4)cc3c2C(C)C)cc1OC [Example 421, 3-((5-(2-(3,4-dimethoxyphenyl)-3-isopropyl-1H-indol-5-yl)pyridin-2-yl)oxy)-N,N-dimethylpropan-1-amine] |
| 0.034 µM | > 50 µM | 0.026 µM | COc1ccc(-c2[nH]c3ccc(-c4ccc(OCCN5CCCC5)cc4)cc3c2C(C)C)cc1OC [Example 412, 2-(3,4-dimethoxyphenyl)-3-isopropyl-5-(4-(2-(pyrrolidin-1-yl)ethoxy)phenyl)-1H-indole] |
